For series [1], the target named is Amyloid-beta precursor protein (Homo sapiens) (UniProt P05067). In words: Inhibition of amyloid beta (unknown origin) aggregation at 10 uM incubated for 5 mins by thioflavin fluorescent based analysis relative to control.
Series [2] can be described thus: Lipophilicity, logP of compound. The series is classed as physicochemical. The following applies: octanol/water.
Series [3] in a line: Lipophilicity, logD of compound at pH 7.4. The series is classed as physicochemical. The following applies: buffer.
Series [4] deals with Cholinesterase (Equus caballus, UniProt P81908). Nature of the series: Inhibition of equine serum BuChE by Ellman's method. For orientation: Ellman's reagent forms a yellow product with free thiols.
Chain of Cholinesterase (P81908 whole entry): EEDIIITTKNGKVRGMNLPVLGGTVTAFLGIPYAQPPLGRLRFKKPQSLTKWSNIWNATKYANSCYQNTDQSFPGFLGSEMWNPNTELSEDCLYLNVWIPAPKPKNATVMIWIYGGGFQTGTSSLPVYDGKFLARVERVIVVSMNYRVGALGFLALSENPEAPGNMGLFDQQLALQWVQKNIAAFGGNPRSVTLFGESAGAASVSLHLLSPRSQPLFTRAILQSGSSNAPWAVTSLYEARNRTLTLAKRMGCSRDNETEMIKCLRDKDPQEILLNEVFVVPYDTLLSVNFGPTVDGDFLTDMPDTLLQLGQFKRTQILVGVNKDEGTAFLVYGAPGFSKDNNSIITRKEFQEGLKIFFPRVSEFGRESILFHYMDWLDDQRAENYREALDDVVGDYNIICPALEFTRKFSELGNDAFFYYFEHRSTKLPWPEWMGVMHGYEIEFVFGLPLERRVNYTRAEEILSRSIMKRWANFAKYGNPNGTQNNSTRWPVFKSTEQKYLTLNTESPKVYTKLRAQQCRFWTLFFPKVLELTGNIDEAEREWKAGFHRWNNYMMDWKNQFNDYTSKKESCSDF
Series [5] addresses Cholinesterase (Equus caballus) (UniProt P81908). Nature of the series: Inhibition of equine serum BuChE.
The target is the same in series [6]. In words: Inhibition of equine serum BuChE at 10 uM by Ellman's method relative to control.
For series [7], the target named is Acetylcholinesterase (Electrophorus electricus) (UniProt O42275). Nature of the series: Inhibition of Electric eel AChE relative to control. The following applies: concentration not given here.
Chain of Acetylcholinesterase (Electrophorus electricus) (O42275 24-633 limits assumed): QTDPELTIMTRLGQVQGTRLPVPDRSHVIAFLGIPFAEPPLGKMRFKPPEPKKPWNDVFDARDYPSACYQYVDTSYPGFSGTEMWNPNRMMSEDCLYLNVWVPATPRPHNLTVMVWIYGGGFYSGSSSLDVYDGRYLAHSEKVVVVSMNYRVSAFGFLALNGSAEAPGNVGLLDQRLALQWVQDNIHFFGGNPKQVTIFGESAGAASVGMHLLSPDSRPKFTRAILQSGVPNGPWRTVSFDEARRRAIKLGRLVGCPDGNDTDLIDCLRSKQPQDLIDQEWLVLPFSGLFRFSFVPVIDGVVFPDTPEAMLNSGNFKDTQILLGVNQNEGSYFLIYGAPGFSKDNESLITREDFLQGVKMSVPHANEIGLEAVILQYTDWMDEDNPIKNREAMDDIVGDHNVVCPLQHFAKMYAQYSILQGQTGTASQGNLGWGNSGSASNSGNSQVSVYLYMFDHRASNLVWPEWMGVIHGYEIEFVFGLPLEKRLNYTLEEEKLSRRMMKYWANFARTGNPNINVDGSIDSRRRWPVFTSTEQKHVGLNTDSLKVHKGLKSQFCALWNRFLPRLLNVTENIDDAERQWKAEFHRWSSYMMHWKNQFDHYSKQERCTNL

Activity calls are given as the source filed them. The calls are words filed in the database; no cut-off is given here.

As a reminder, the inhibition is how much of the control response was suppressed. In general, logP refers to a log measure of how a compound divides between an organic and an aqueous phase. A low value points to lower lipophilicity. In general, logD refers to lipophilicity at a set pH, counting ionised and neutral species. Read a high logD as a more lipophilic compound. What is called IC50 is the concentration that gives 50% inhibition.

Chain of Amyloid-beta precursor protein (Homo sapiens) (P05067 whole entry): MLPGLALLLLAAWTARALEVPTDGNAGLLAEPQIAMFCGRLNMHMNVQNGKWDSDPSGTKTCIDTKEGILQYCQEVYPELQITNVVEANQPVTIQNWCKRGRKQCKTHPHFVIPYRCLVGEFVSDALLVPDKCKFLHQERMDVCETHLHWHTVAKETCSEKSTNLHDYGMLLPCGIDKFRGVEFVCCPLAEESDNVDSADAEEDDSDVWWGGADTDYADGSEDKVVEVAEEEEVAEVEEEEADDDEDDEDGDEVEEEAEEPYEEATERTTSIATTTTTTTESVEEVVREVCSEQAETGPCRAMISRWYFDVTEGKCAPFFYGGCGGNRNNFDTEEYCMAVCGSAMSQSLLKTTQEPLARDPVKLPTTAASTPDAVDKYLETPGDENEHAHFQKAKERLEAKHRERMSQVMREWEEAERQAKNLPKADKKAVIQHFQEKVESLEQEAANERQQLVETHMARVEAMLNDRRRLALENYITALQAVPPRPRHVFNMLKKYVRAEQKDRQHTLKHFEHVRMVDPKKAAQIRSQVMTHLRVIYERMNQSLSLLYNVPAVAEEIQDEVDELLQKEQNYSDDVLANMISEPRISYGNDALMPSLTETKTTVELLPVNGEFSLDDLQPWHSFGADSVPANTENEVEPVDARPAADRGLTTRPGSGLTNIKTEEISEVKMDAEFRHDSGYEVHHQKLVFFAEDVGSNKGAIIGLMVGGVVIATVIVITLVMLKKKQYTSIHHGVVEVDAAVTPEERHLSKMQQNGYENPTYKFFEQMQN
Chain of Cholinesterase (Equus caballus) (P81908 whole entry): as the sequence (P81908 whole entry) above

In the case of `CC(C)(C)c1cccc(CNCC(O)CNCCC(c2ccccc2)c2ccccc2)c1` (centres undefined), the inhibition in series [1] came out at 4.6%. The compound further registered a log partition coefficient (logP) in series [2] of 5.96. Besides, in series [3], the logD amounted to 3.7.
Compound `O=C(CC(c1ccccc1)c1ccccc1)NCC(O)CNCC1CCCCC1` (centres undefined) came in with an inhibition in series [1] of 4.6%. For the same compound, the IC50 in series [4] came to 78 nM. In series [3], the logD is 1.43.
In turn, `O=C(NC[C@@H](O)CNCC1CCCCCC1)C1c2ccccc2-c2ccccc21` showed an inhibition in series [1] of 4.6%. The IC50 in series [4] was determined as 31 nM.
`O=C(NC[C@H](O)CNCC1CCCCCC1)C1c2ccccc2-c2ccccc21`: the inhibition in series [1] worked out at 4.6%. The compound also came in with a half-maximal inhibitory concentration (IC50) in series [4] of 288 nM.
With `Nc1c2c(nc3ccccc13)CCCC2`, the inhibition in series [1] worked out at 4.6%.
Take `CC(C)(C)CNCC(O)CNC(=O)CC1c2ccccc2-c2ccccc21` (racemic): the inhibition in series [1] amounted to 4.6%. The IC50 in series [4] was determined as 672 nM. The same compound had a logD in series [3] of 0.73.
Taken in the same sequence, the figures for `O=C(NCC(O)CNCC1CCCCC1)C1c2ccccc2-c2ccccc21` (racemic) were 4.6%, 231 nM and 0.91.
On to `O=C(NCC(O)CNCCC1CCCCC1)C1c2ccccc2-c2ccccc21` (racemic), for which, in series [1], the inhibition came out at 60.7%. For the same compound, half-maximal inhibition in series [4] (IC50) required 475 nM. In series [3], the pH-dependent lipophilicity (logD) stood at 1.41.
The like results for `O=C(CC1c2ccccc2-c2ccccc21)NCC(O)CNCCC1CCCCC1` (racemic) were, in that order, 4.6%, 422 nM and 1.6.
The like results for `O=C(NCC(O)CNCC1CCCCCC1)C1c2ccccc2-c2ccccc21` (racemic) were, in that order, 4.6%, 38 nM and 1.36.
Taken in the same sequence, the figures for `O=C(CC1c2ccccc2-c2ccccc21)NCC(O)CNCC1CCCCCC1` (racemic) were 4.6%, 1090 nM and 1.55.
With `O=C(CC1c2ccccc2-c2ccccc21)NCC(O)CNCC1CCCCC1` (racemic), in series [1], the inhibition worked out at 4.6%. Besides, the half-maximal inhibitory concentration (IC50) in series [4] stood at 1690 nM. Also, the logD in series [3] is 1.1.
As to `O=C(CC1c2ccccc2-c2ccccc21)NCC(O)CNCC1CC1` (racemic), the inhibition result in series [5] was “inactive”. The inhibition was 4.6% in series [1], 44.5% in series [6] and over 20% in series [7]. This compound had a pH-dependent lipophilicity (logD) in series [3] of -0.1.
In turn, `O=C(NCC(O)CNCc1ccccc1)C1c2ccccc2-c2ccccc21` (racemic) displayed an inhibition in series [1] of 4.6%. Also, half-maximal inhibition in series [4] (IC50) was put at 627 nM. Moreover, the log distribution coefficient (logD) in series [3] amounted to 1.78.
The like results for `O=C(CC1c2ccccc2-c2ccccc21)NCC(O)CNC1CCCCC1` (racemic) were, in that order, 4.6%, 1490 nM and 0.79.
Taken in the same sequence, the figures for `CC(C)(C)CNCC(O)CNC(=O)C1c2ccccc2-c2ccccc21` (racemic) were 4.6%, 385 nM and 0.54.
Taken in the same sequence, the figures for `O=C(CC1c2ccccc2-c2ccccc21)NCC(O)CNCC1CCCC1` (racemic) were 4.6%, 1710 nM and 0.66.
In series [1], `O=C(CC1c2ccccc2-c2ccccc21)NCC(O)CNCc1ccccc1` (racemic) came in with an inhibition of 4.6%. It took 4330 nM to reach half-maximal inhibition in series [4] (IC50). In series [3], the pH-dependent lipophilicity (logD) turned out to be 1.88.
Taken in the same sequence, the figures for `O=C(NCC(O)CNCC1CC1)C1c2ccccc2-c2ccccc21` (racemic) were 4.6%, 435 nM and -0.29.
Taken in the same sequence, the figures for `O=C(NCC(O)CNC1CCCCC1)C1c2ccccc2-c2ccccc21` (racemic) were 4.6%, 336 nM and 0.6.
In series [1], `O=C(NCC(O)CNCC1CCCC1)C1c2ccccc2-c2ccccc21` (racemic) displayed an inhibition of 4.6%. Half-maximal inhibition in series [4] (IC50) required 379 nM. For the same compound, the logD in series [3] is 0.47.
`O=C(NCC(O)CNCC(F)(F)F)C1c2ccccc2-c2ccccc21` (racemic): in series [1], the inhibition is 67.6%. Also, it took 12900 nM to reach half-maximal inhibition in series [4] (IC50). For the same compound, the logD in series [3] turned out to be 2.33.

The record behind these values is ChEMBL document CHEMBL5380880, “Novel drug-like fluorenyl derivatives as selective butyrylcholinesterase and β-amyloid inhibitors for the treatment of Alzheimer's disease” (Bioorg Med Chem, 2023).
